Reference: patent US20240148664A1, “LIPID AND COMPOSITION” (SOGO PHARMACEUTICAL CO., LTD., priority 2021, published 2024)

Legend:
[1] = Measurement of particle size, polydispersity index and zeta potential of lipid nanoparticle (Zetasizer); format: physicochemical; conditions: lipid nanoparticle containing siRNA; for Particle size (nm) / PDI: main lipid/DPPC/cholesterol=45/10/45; for Particle size (nm): Z-average in ultrapure water; for PDI: ultrapure water; for Zeta potential (mV): pH 7.4 Tris-HCl
Procedure: 30 μL of each of the dialyzed lipid nanoparticle-containing solutions obtained by the above operation was measured out, 800 μL of ultrapure water was added to dilute the lipid nanoparticle-containing solution, and the diluted preparation solution was used to measure the particle size (nm) and the polydispersity index (PDI) by using a Zetasizer (manufactured by Malvern Panalytical, Zetasizer nano Ultra). The particle size was evaluated by Z-average in ultrapure water. The zeta potential was measured by using pH 7.4 Tris-HCl as a dilute solution.

[2] = siRNA / mRNA encapsulation rate of lipid nanoparticle (RiboGreen); format: physicochemical; conditions: siRNA encapsulation rate of lipid nanoparticle
Procedure: The siRNA encapsulation rate and the mRNA encapsulation rate of the lipid nanoparticle were obtained as follows. First, a surfactant (Sigma-Aldrich, Triton (registered trademark), X-100 (reducing type)) was added to the lipid nanoparticle-containing solution to disrupt the lipid nanoparticle to release the encapsulated siRNA or mRNA. The amounts of the lipid nanoparticle-containing solution and the surfactant were adjusted such that the siRNA or the mRNA was 2 pmol and the surfactant was 1% in 40 μL of the solution after adding the surfactant to the lipid nanoparticle-containing solution. Next, the RiboGreen reagent (reagent that reacts with siRNA to emit fluorescence, manufactured by Thermo Fisher Scientific, Quant-iT (registered trademark) RiboGreen (registered trademark) RNA Assay Kit) was added to the solution, and the fluorescence intensity was measured under conditions of an excitation wavelength of 480 nm and a fluorescence wavelength of 520 nm with a fluorescence intensity meter (manufactured by TECAN, Infinite M200). Specifically, 75 μL of the RiboGreen reagent diluted to 1/2000 was added to a diluted solution obtained by adding 65 μL of citrate buffer to 10 μL of the solution, and the fluorescence intensity was measured. This makes it possible to relatively measure the total amount of the siRNA or the total amount of the mRNA present in the solution.
Subsequently, the RiboGreen reagent was added to the lipid nanoparticle-containing solution without adding a surfactant, and the fluorescence intensity was measured in the same manner with a fluorescence intensity meter. By not adding a surfactant, it is possible to relatively measure the amount of the siRNA or the mRNA free in the solution without being encapsulated in the lipid nanoparticle.
Then, the fluorescence intensity obtained from the solution to which the surfactant was added obtained as described above was fluorescence intensity a, and the fluorescence intensity thus obtained from the solution to which no surfactant was added obtained as described above was fluorescence intensity b, and according to the expression (a−b)/a×100, the siRNA encapsulation rate (%) or the mRNA encapsulation rate (%) of the lipid nanoparticle was obtained. Each of fluorescence intensity a and fluorescence intensity b is a value obtained by subtracting a blank from the arithmetic average value of the results of three measurements for each solution. The blank was measured by carrying out the same operation on a well containing water containing no cell or lipid nanoparticle.

[3] = tested on: HT1080-EGFP (human/fibrosarcoma) cells; experiment: Evaluation of knockdown effect (GFP assay), Cell experiment 1; format: cell-based; conditions: lipid nanoparticle containing siRNA against EGFP; fluorescence intensity with control cells without lipid nanoparticle set at 100
Procedure: A cell experiment was carried out by using HT1080-EGFP (human/fibrosarcoma) cells in order to evaluate lipid nanoparticles encapsulating an siRNA produced by using the lipids of the Examples and the Comparative Examples. These cells are cells provided with a green fluorescent protein gene (EGFP). The expression of EGFP can be easily confirmed by measuring the fluorescence intensity of a solution in which the cells are lysed, and thus by acting lipid nanoparticles encapsulating an siRNA that suppresses the expression of EGFP and observing any decrease in fluorescence intensity, the performance of the lipid nanoparticles used can be evaluated. Hereinafter, the procedure of the cell experiment will be shown.
(§1) A. Provision of Cells • (i) A liquid medium (DMEM/Ham's F12, FBS+, P/S+) (FBS: fetal bovine serum, P/S: antibiotic) was taken out from a refrigerator and temperature-controlled in an incubator set at 37° C. • (ii) A cryotube containing the cells was taken out from a −80° C. freezer and thawed at once in an incubator set at 37° C. • (iii) A stock solution of the thawed cells was collected in a capped test tube. • (iv) The tube containing the cells was washed with the liquid medium, and the wash was also collected in the test tube. • (v) The tube was subjected to a centrifuge to precipitate the cells. • (vi) The supernatant was aspirated, and the liquid medium was added and gently tapped to disperse the cells. • (vii) A small amount of the cells-dispersed liquid medium was collected, and the number of cells was observed and counted under a microscope. • (viii) The cells were seeded in a 24-well plate such that the number of cells was 2×10^4 cells per well. For the plate for an LDH assay described later, the cells were seeded in a 96-well plate such that the number of cells was 4×10^3 cells per well. • (ix) The 24-well plate or the 96-well plate was placed in an incubator, and the cells were cultured for 24 hours under conditions of 37° C. and 5% CO2.
(§2) The produced lipid nanoparticles were introduced into cells. • (i) Fetal bovine serum (FBS) was added to a liquid medium (FBS-, P/S-) temperature-controlled as in (i) of A above, in such a way as to reach 10%. • (ii) A 24-well plate was taken out from an incubator, and the liquid medium supernatant in the 24-well plate was aspirated and washed with phosphate buffered saline (PBS). • (iii) 400 μL of the liquid medium produced in (i) above was added to the washed 24-well plate. In addition, 100 μL of an LNP solution having an adjusted concentration was added. • (iv) The 24-well plate was placed in the incubator, and the cells were cultured (for 24 hours). • (v) After 24 hours, the liquid medium supernatant in the 24-well plate was aspirated, and 500 μL of a liquid medium containing 10% FBS (FBS+/P/S+) was added. • (vi) The 24-well plate was placed in the incubator, and the cells were cultured for 24 hours under conditions of 37° C. and 5% CO2.
By carrying out a GFP assay, the EGFP expression level in cells was measured to evaluate the effect of knocking down the green fluorescent protein gene (EGFP) by lipid nanoparticles. • (i) A 24-well plate was taken out from an incubator and washed with PBS. • (ii) A 1% octylglucoside solution to which a protease inhibitor was added was added in order to disrupt cells. Stirring with a pipette lysed the cells. • (iii) The cell lysate was transferred to an Eppendorf tube and subjected to a centrifuge. • (iv) 150 μL of the supernatant was collected and added to a plate for fluorescence measurement. • (v) The fluorescence intensity was measured under conditions of an excitation wavelength of 485 nm and a fluorescence wavelength of 535 nm with a plate reader (manufactured by TECAN, Infinite M200). The fluorescence intensity was calculated with the fluorescence intensity of control cells to which no lipid nanoparticle was added set at 100.

[4] = tested on: HT1080-EGFP (human/fibrosarcoma) cells; experiment: Evaluation of toxicity: CCK-8 assay; format: cell-based; conditions: lipid nanoparticle containing siRNA; absorbance relative to control cells without lipid nanoparticle set at 1.00
Procedure: as §1, §2
For Examples 1 to 9, a CCK-8 assay or an LDH assay was carried out to measure the metabolic activity of viable cells and relatively quantify the number of surviving cells to evaluate the toxicity of lipid nanoparticles.
(a) CCK-8 Assay • (i) Fetal bovine serum (FBS) and a viable cell counting kit (manufactured by DOJINDO LABORATORIES, Cell Count Kit-8) was added to a liquid medium (FBS-, P/S-) temperature-controlled as in (i) of A above, such that FBS was 10% and the kit was 10%. • (ii) A 24-well plate was taken out from an incubator. The liquid medium was removed, and 315 μL of the liquid medium containing the viable cell counting kit produced in (i) above was added. • (iii) The liquid medium was aged for 1 hour in the incubator. • (iv) The 24-well plate was taken out, and the absorbance was measured under conditions of a measurement wavelength of 450 nm and a target wavelength of 630 nm with a plate reader (manufactured by TECAN, Infinite M200). The absorbance was calculated with the absorbance of control cells to which no lipid nanoparticle was added set at 1.00. When the obtained value was 0.80 or more and 1.00 or less, a rating of double-circle (excellent) was given, when the obtained value was 0.50 or more and less than 0.80, a rating of circle (good) was given, when the obtained value was 0.20 or more and less than 0.50, a rating of triangle (fair) was given, and when the obtained value was less than 0.20, a rating of X-mark (poor) was given.

Compound	Particle size (nm) [1]	PDI [1]	Zeta potential (mV) [1]	Encapsulation rate (%) [2]	GFP Assay [3]	CCK Assay [4]
CCCCCCCC/C=C\CCCCCCCCC(CCCCCCC/C=C\CCCCCCCC)OC(=O)C(CCC(=O)O)NC(=O)C(N)CCCCN (stereo not drawn) [Example 8, 4-(2,6-diaminohexanamido)-5-(((9Z,27Z)-hexatriaconta-9,27-dien-18-yl)oxy)-5-oxopentanoic acid]	162.5 nm	0.147	19.1 mV	100%	47	⊚ (When the obtained value was 0.80 or more and 1.00 or less, a rating of double-circle (excellent) was given)
CCCCCCCC/C=C\CCCCCCCCC(CCCCCCC/C=C\CCCCCCCC)OC(=O)C(CC(=O)O)NC(=O)C(N)CCCCN (stereo not drawn) [Example 7, 3-(2,6-diaminohexanamido)-4-(((9Z,27Z)-hexatriaconta-9,27-dien-18-yl)oxy)-4-oxobutanoic acid]	94.2 nm	0.159	8.28 mV	100%	28	◯ (when the obtained value was 0.50 or more and less than 0.80, a rating of circle (good) was given)
CCCCCCCC/C=C\CCCCCCCCC(CCCCCCC/C=C\CCCCCCCC)OC(=O)C(CCC(=O)O)NC(=O)C(N)Cc1c[nH]cn1 (stereo not drawn) [Example 9, 4-(2-amino-3-(1H-imidazol-4-yl)propanamido)-5-(((9Z,27Z)-hexatriaconta-9,27-dien-18-yl)oxy)-5-oxopentanoic acid]	107.6 nm	0.093	24.6 mV	84%	56	⊚ (When the obtained value was 0.80 or more and 1.00 or less, a rating of double-circle (excellent) was given)
